# Results as given in patent US7462613B2, “Pyridazinone derivatives as pharmaceuticals and pharmaceutical compositions containing them” (SANOFI-AVENTIS Deutschland GmbH, priority 2002, dated 2008).
# Biological target: CDK2/Cyclin E kinase (Homo sapiens, UniProt P24941)
# Test: CDK2/Cyclin E Flashplate Assay: 96-Well Format
# Format: biochemical
# Conditions: streptavidin-coated flashplate; biotinylated-Rb peptide substrate 10 μM; 33P-ATP/ATP 1 μM; CDK2/Cyclin E 20 nM; 30 minutes at 30° C.; 1% DMSO
# Method: Functional Measurements for Determination of IC50-Values
# CDK2/Cyclin E Flashplate Assay: 96-Well Format
# A 96-well streptavidin-coated flashplate was used to assay potency of compounds according formula (I) against CDK2/Cyclin E kinase. To carry out the assay, biotinylated-Rb peptide substrate (Biotin-[…]-OH) was solubilized at 1 mM in kinase buffer (Hepes 50 mM, NaCl 1 mM, MgCl2 5 mM pH 7.5) as a stock solution conserved at −20° C. in aliquots of 110 μl. The day of the experiment, an aliquot of this solution was thawed and diluted to 14.3 μM in kinase buffer, containing 1 mM dithiothreitol (DTT) added in the buffer at the same time.
# 70 μl of this solution was added in each well of the flashplate in order to achieve a final concentration of 10 μM (100 μl reactionnal volume). Serial dilutions of inhibitors were prepared in DMSO from 10 mM stock solutions in order to achieve 1000 μM, 333.3 μM, 111.1 μM, 37.03 μM, 12.35 μM, 4.11 μM and 1.37 μM and all were rediluted in kinase buffer+DTT in order to achieve 100 μM, 33.3 μM, 11.1 μM, 3.7 μM, 1.24 μM, 0.41 μM and 0.14 μM in DMSO 10% buffer (vol/vol). 10 μl of each, of these solutions (or 10 μl of buffer+DTT for controls) were transferred to the testplate wells in order to achieve 10 μM, 3.33 μM, 1.11 μM, 0.37 μM, 0.12 μM, 0.04. μM and 0.01 μM as final concentrations, 1% DMSO (vol/vol). In each well, 10 μl of a solution of a mix of ^33PyATP/ATP were added in order to achieve 1 μM final concentration and a total of 1 μCi. The kinase reaction was initiated by addition of 10 μl of a solution at 200 nM of CDK2/Cyclin E in kinase buffer+DTT (or buffer+DTT for blanks) in order to achieve 20 nM final concentration. After addition of each reagent, the test-plate was shakened. The plates were incubated 30 minutes at 30° C. with a shaking at 650 rpm. At the end of the incubation, the plates were washed 3 times with 300 μl of PBS (without calcium and magnesium) per well. The incorporation of ^33P to the peptide was measured by scintillation counting.
row,IC50,Compound
1,802 nM,"O=C(NCc1ccc(Br)cc1)c1cc(-c2ccncc2)n[nH]c1=O [Example 75, 3-Oxo-6-pyridin-4-yl-2,3-dihydro-pyridazine-4-carboxylic acid 4-bromo-benzylamide; compoundwith trifluoro-acetic acid]"
2,175 nM,"COc1cc(-c2cc(C(=O)NCCCc3cccnc3)c(=O)[nH]n2)ccc1O [Example 49, 6-(4-Hydroxy-3-methoxy-phenyl)-3-oxo-2,3-dihydro-pyridazine-4-carboxylic acid (3-pyridin-3-yl-propyl)-amide]"
3,521 nM,"O=C(NCCCc1ccccc1)c1cc(-c2ccncc2)n[nH]c1=O [Example 66, 3-Oxo-6-pyridin-4-yl-2,3-dihydro-pyridazine-4-carboxylic acid (3-phenyl-propyl)-amide; compoundwith trifluoro-acetic acid]"
4,164 nM,"O=C(NCCc1ccccc1Cl)c1cc(-c2ccncc2)n[nH]c1=O [Example 103, 3-Oxo-6-pyridin-4-yl-2,3-dihydro-pyridazine-4-carboxylic acid [2-(2-chloro-phenyl)-ethyl]-amide; compound withtrifluoro-acetic acid]"
5,219 nM,"O=C(NCc1ccc2c(c1)OCO2)c1cc(-c2ccncc2)n[nH]c1=O [Example 84, 3-Oxo-6-pyridin-4-yl-2,3-dihydro-pyridazine-4-carboxylic acid(benzo[1,3]dioxol-5-ylmethyl)-amide;compound with trifluoro-acetic acid]"
6,107 nM,"CCCCNc1nccc(-c2cc(C(=O)NCCCN3CCN(C)CC3)c(=O)[nH]n2)n1 [Example 218, 6-(2-Butylamino-pyrimidin-4-yl)-3-oxo-2,3-dihydro-pyridazine-4-carboxylic acid [3-(4-methyl-piperazin-1-yl)-propyl]-amide; compoundwith trifluoro-acetic acid]"
7,464 nM,"O=C(NCc1ccc(Cl)cc1)c1cc(-c2cc(F)c(O)c(F)c2)n[nH]c1=O [Example 182, 6-(3,5-Difluoro-4-hydroxy-phenyl)-3-oxo-2,3-dihydro-pyridazine-4-carboxylic acid 4-chloro-benzylamide]"

# The next lines start with the molecule.
row,Compound,IC50
1,"O=C(NCc1ccc(C(F)(F)F)cc1)c1cc(-c2ccncc2)n[nH]c1=O [Example 112, 3-Oxo-6-pyridin-4-yl-2,3-dihydro-pyridazine-4-carboxylic acid 4-trifluoromethyl-benzylamide; compoundwith trifluoro-acetic acid]",360 nM
2,"CCNc1nccc(-c2cc(C(=O)NCc3ccc(Cl)cc3)c(=O)[nH]n2)n1 [Example 190, 6-(2-Ethylamino-pyrimidin-4-yl)-3-oxo-2,3-dihydro-pyridazine-4-carboxylic acid 4-chloro-benzylamide]",18 nM
3,"O=C(NCc1ccc(F)cc1)c1cc(-c2ccncc2)n[nH]c1=O [Example 125, 3-Oxo-6-pyridin-4-yl-2,3-dihydro-pyridazine-4-carboxylic acid 4-fluoro-benzylamide; compoundwith trifluoro-acetic acid]",519 nM
4,"COc1cc(-c2cc(C(=O)NCc3ccc(Cl)cc3)c(=O)[nH]n2)ccc1O [Example 41, 6-(4-Hydroxy-3-methoxy-phenyl)-3-oxo-2,3-dihydro-pyridazine-4-carboxylic acid 4-chloro-benzylamide]",147 nM
5,"CNc1cc(-c2cc(C(=O)NCc3ccc(Cl)cc3)c(=O)[nH]n2)ccn1 [Example 206, 6-(2-Methylamino-pyridin-4-yl)-3-oxo-2,3-dihydro-pyridazine-4-carboxylicacid 4-chloro-benzylamide]",157 nM
6,"CS(=O)(=O)c1ccc(CNC(=O)c2cc(-c3ccncc3)n[nH]c2=O)cc1 [Example 98, 3-Oxo-6-pyridin-4-yl-2,3-dihydro-pyridazine-4-carboxylic acid 4-methanesulfonyl-benzylamide; compoundwith trifluoro-acetic acid]",664 nM
7,"O=C(NCc1ccc(Cl)cc1)c1cc(-c2ccc(O)c(F)c2)n[nH]c1=O [Example 183, 6-(3-Fluoro-4-hydroxy-phenyl)-3-oxo-2,3-dihydro-pyridazine-4-carboxylic acid 4-chloro-benzylamide]",102 nM
